This note sets out measurements from patent publication US8134032B2, “Crystalline modifications of (1R,2R)-3-(3-dimethylamino-1-ethyl-2-methyl-propyl)-phenol” (priority 2007, dated 2012).

Molecules are shown by their SMILES.

Format in all cases: physicochemical
One series can be described thus: solubility in solvents. The following applies: in saturated hydrocarbons (n-pentane, n-hexane, n-heptane) and water. The source says: Conventional organic solvents known to persons skilled in the art may be used as solvents in a solution of this type, in particular alcohols such as methanol, ethanol, 1-propanol and 2-propanol, esters such as ethyl acetate, ketones such as acetone and ethylmethyl ketone, ethers such as diethyl ether, tert-butyl methyl ether, 1,4-dioxane and tetrahydrofuran, nitriles such as acetonitrile, chlorinated hydrocarbons such as dichloromethane, aromatic hydrocarbons such as toluene, and also dimethyl formamide and dimethyl sulfoxide.

Series [1] in a line: physical stability of amorphous modification (Example 7). As to the method:
Attempts were made to produce the amorphous modification of (1R,2R)-3-(3-dimethylamino-1-ethyl-2-methyl-propyl)-phenol by evaporation, lyophilization or melting.
7.1) 150 mg (1) were dissolved in 3 ml MeOH. The solvent was removed on a rotary evaporator. A colourless oil remained. The residue was dried in a vacuum.
7.2) 150 mg (1) were dissolved in 2 ml 1,4-dioxane. The solvent was removed by freeze-drier.
7.3) 150 mg (1) were dissolved in 2 ml 1,4-dioxane. The solvent was removed by freeze-drier (−85° C., 0.5 mbar). A colourless residue remained and crystallized spontaneously before it was possible to perform a PXRD analysis. […] The melt was frozen with dry ice. An amorphous film was obtained which crystallized within 1 hour.

The nature of series [2]: crystallization of amorphous oily residues on storage (Example 1). Conditions: stored at RT or at 5° C. The procedure:
Amorphous (1R,2R)-3-(3-dimethylamino-1-ethyl-2-methyl-propyl)-phenol was obtained by rapid evaporation of a solution of the compound on a rotary evaporator. The oily residues were stored at RT or at 5° C. All the samples crystallized within 24 hours.

The nature of series [3]: dynamic vapor sorption (DVS). The following applies: 25° C.; for changes in mass (DVS): dynamic mode, 5% relative air humidity/hour; for hygroscopicity: DVS. The procedure:
Crystalline modifications A and B of (1R,2R)-3-(3-dimethylamino-1-ethyl-2-methyl-propyl)-phenol were each characterized by dynamic vapor sorption (DVS). The analyses were recorded in dynamic mode (5% relative air humidity/hour).
The DVS cycles are reversible.

Series [4] is described as follows: rate of dissolution in water, second determination (tablets). Conditions: for rate of dissolution: tablets, in water. As to the method: (§1) To analyse the rate of dissolution of modifications A and B in water, two different determinations were carried out.
Series [5] in a line: mechanical stress: ball mill grinding and tablet compaction (Example 8). The following applies: for modification obtained after tablet compaction: IR tablet press, pressure 10 t, 30 min; for modification obtained after grinding in ball mill: shaking frequency 30 sec^-1, RT, 2x90 min, 1x60 min. As to the method: The effect of mechanical stress from grinding with a ball mill (model Retsch MM200, agate vessel and agate ball with 5 mm diameter) and from pressure during the production of a tablet was analysed.
8.1) A tablet was produced with 100 mg (1) on an IR tablet press (pressure 10 t, 30 min).
8.4) 15 mg of the crystalline form A were ground in a ball mill (shaking frequency: 30 sec^−1, RT) as follows: 2×90 min, 1×60 min, 2×30 min discontinuation.

The nature of series [6]: relative thermodynamic stability, suspension of mixtures of modifications A and B (Example 9). The following applies: temperature range of 5-85° C., preferably 5-50° C. As to the method:
The suspension was shaken overnight in an Eppendorf Thermomixer at RT. The obtained solid was filtered out and characterized by FT Raman spectral analysis. […] The suspension was shaken overnight in an Eppendorf Thermomixer at RT. The resulting solid was filtered out and characterized by FT Raman spectral analysis. […] The suspension was stirred for three days at 5° C. The obtained solid was filtered out and characterized by FT Raman spectral analysis. […] The suspension was stirred overnight at 50° C. […] All solid components were dissolved. After cooling to RT, small amounts of a colourless solid were precipitated. The solvent was removed in a nitrogen flow. […]

Series [7] in a line: suspension of modification B in various solvents (Example 6). The following applies: 2 days; for modification obtained after suspension: stirred at RT. The procedure: It was possible to exclude the formation of solvates with the selected solvents.
6.1) 200 mg (1) were suspended in 500 μl TBME. The mixture was stirred at RT for a duration of 2 days and the resulting solid was filtered out.
6.2) 100 mg (1) were suspended in 500 μl heptane/TBME (1:1). The mixture was stirred at RT for a duration of 2 days and the resulting solid was filtered out.
6.3) 100 mg (1) were suspended in 500 μl H2O. The mixture was stirred at RT for a duration of 2 days and the resulting solid was filtered out.
6.4) 100 mg (1) were suspended in 500 μl IPE. The mixture was stirred at RT for a duration of 2 days and the resulting solid was filtered out.
6.5) 100 mg (1) were suspended in 500 μl H2O/EtOH. The mixture was stirred at RT for a duration of 2 days and the resulting solid was filtered out.

The nature of series [8]: rate of dissolution in water, first determination (stirred suspension). Conditions: particle size distribution not taken into account. As to the method:
as §1
Under these conditions, the particle size affects the result.

Consider `CC[C@@H](c1cccc(O)c1)[C@@H](C)CN(C)C` [(1R,2R)-3-(3-dimethylamino-1-ethyl-2-methyl-propyl)-phenol], for which the solubility result in the series “solubility in solvents” was “only poorly soluble”.

Take `CC[C@@H](c1cccc(O)c1)[C@@H](C)CN(C)C` [amorphous modification, (1R,2R)-3-(3-dimethylamino-1-ethyl-2-methyl-propyl)-phenol]: the “crystallization of amorphous samples” value in series [1] (amorphous samples from evaporation, lyophilization or melting) was “crystallized within hours”. In addition, in series [1] (melted at 88-91° C., melt frozen with dry ice), the “time until amorphous film crystallized” value is at most 1 h. For the same compound, in [2], the “time until amorphous oily residues crystallized” value was at most 24 h.

Regarding `CC[C@@H](c1cccc(O)c1)[C@@H](C)CN(C)C` [modification A, (1R,2R)-3-(3-dimethylamino-1-ethyl-2-methyl-propyl)-phenol], in [3], the “changes in mass (DVS)” value is given as 0.8% and the hygroscopicity result was “not or at most slightly hygroscopic”. Moreover, the “polymorphic conversion during dissolution determination” value in [4] (tablets in water, analysed with FT Raman) is on record as “converted into form B”. In series [4], this compound returned a rate of dissolution of 0.003 mg/min cm^2. In series [5], the “modification obtained after tablet compaction” value is “Modification A” and the “modification obtained after grinding in ball mill” value was “converted into modification B”. Besides, the “modification obtained after grinding in ball mill” value in series [5] (listed as form A) was “Modification B”.

As to `CC[C@@H](c1cccc(O)c1)[C@@H](C)CN(C)C` [modification B, (1R,2R)-3-(3-dimethylamino-1-ethyl-2-methyl-propyl)-phenol], the “thermodynamic stability of the form” value in [6] is “most thermodynamically stable form”. For the same compound, the “modification obtained after suspension” value in series [7] (H2O), in [7] (H2O/EtOH), in series [7] (IPE), in series [7] (TBME) and in series [7] (heptane/TBME (1:1)) was “modification B” each time. The “change upon suspension in various solvents” value in series [7] (various solvents, RT) is reported as “no change”. Besides, in series [3], the “changes in mass (DVS)” value was found to be 0.3%. Also, the hygroscopicity entry in series [3] is “not or at most slightly hygroscopic”. In addition, the “rate of dissolution, comparison of forms” value in series [8] is “dissolves more rapidly”. The compound also displayed a rate of dissolution in series [4] of 0.003 mg/min cm^2. Also, the “modification obtained after tablet compaction” value in series [5] (listed as (1)) is “Modification B”. Moreover, in [5], the “modification obtained after grinding in ball mill” value is listed as “Modification B”.
